Read-outs that look alike come from different tables or passages of the source.

For 14 compounds, pest or weed control results are on record in patent publication US10206394B2, “Herbicidal compounds” (Syngenta Participations AG, priority 2014, dated 2019).

Holding throughout (test): Glasshouse assay for herbicidal activity (pre- and post-emergence), percentage phytotoxicity
Common to all, as to assay type: in vivo

Experiment [1] concerns Alopecurus myosuroides (ALOMY). The settings on record: Alopecurus myosuroides. Put shortly: (§1)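 Pot-grown, standard soil. PRE: spray 1 d post-sowing; POST: ~12 d. Glasshouse 24/18 °C (warm spp.) / 20/16 °C (cool spp.), 16 h light, 65% RH, watered 2×/day. Visual % damage, 20 DAA PRE, 15 DAA POST.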
The subject of experiment [2] is Avena fatua (AVEFA). The settings on record: Avena fatua. In short, it runs like this: as §1
For experiment [3], the system named is Echinochloa crus-galli (ECHCG). The following applies: Echinochloa crus-galli. In short, it runs like this: as §1
For experiment [4], the system named is Lolium perenne (LOLPE). The settings on record: Lolium perenne. In short, it runs like this: as §1
[5] abbreviates: post-emergence, 360 h, POST-emergence, rate 250 g/ha, visual score 15 DAA (100%=total damage, 0%=no damage), read-out: Post-emergence herbicidal activity (percentage phytotoxicity) ALOMY POST.
The mark [6] stands for this setting: pre-emergence, 480 h, PRE-emergence, rate 250 g/ha, visual score 20 DAA (100%=total damage, 0%=no damage), read-out: Pre-emergence herbicidal activity (percentage phytotoxicity) ALOMY PRE.
[7] abbreviates: post-emergence, 360 h, POST-emergence, rate 250 g/ha, visual score 15 DAA (100%=total damage, 0%=no damage), read-out: Post-emergence herbicidal activity (percentage phytotoxicity) AVEFA POST.
[8] abbreviates: pre-emergence, 480 h, PRE-emergence, rate 250 g/ha, visual score 20 DAA (100%=total damage, 0%=no damage), read-out: Pre-emergence herbicidal activity (percentage phytotoxicity) AVEFA PRE.
[9] abbreviates: post-emergence, 360 h, POST-emergence, rate 250 g/ha, visual score 15 DAA (100%=total damage, 0%=no damage), read-out: Post-emergence herbicidal activity (percentage phytotoxicity) ECHCG POST.
Where [10] appears, read: pre-emergence, 480 h, PRE-emergence, rate 250 g/ha, visual score 20 DAA (100%=total damage, 0%=no damage), read-out: Pre-emergence herbicidal activity (percentage phytotoxicity) ECHCG PRE.
Setting [11] is: post-emergence, 360 h, POST-emergence, rate 250 g/ha, visual score 15 DAA (100%=total damage, 0%=no damage), read-out: Post-emergence herbicidal activity (percentage phytotoxicity) LOLPE POST.
Setting [12] is: pre-emergence, 480 h, PRE-emergence, rate 250 g/ha, visual score 20 DAA (100%=total damage, 0%=no damage), read-out: Pre-emergence herbicidal activity (percentage phytotoxicity) LOLPE PRE.
Setting [13] is: post-emergence, 360 h, Rate 250 g/ha, post-emergence, visual assessment 15 DAA, 100%=total damage, 0%=no damage, read-out: Post-emergence herbicidal activity (percentage phytotoxicity) ALOMY POST.
Setting [14] is: pre-emergence, 480 h, Rate 250 g/ha, pre-emergence, visual assessment 20 DAA, 100%=total damage, 0%=no damage, read-out: Pre-emergence herbicidal activity (percentage phytotoxicity) ALOMY PRE.
[15] abbreviates: post-emergence, 360 h, Rate 250 g/ha, post-emergence, visual assessment 15 DAA, 100%=total damage, 0%=no damage, read-out: Post-emergence herbicidal activity (percentage phytotoxicity) AVEFA POST.
Setting [16] is: pre-emergence, 480 h, Rate 250 g/ha, pre-emergence, visual assessment 20 DAA, 100%=total damage, 0%=no damage, read-out: Pre-emergence herbicidal activity (percentage phytotoxicity) AVEFA PRE.
The mark [17] stands for this setting: post-emergence, 360 h, Rate 250 g/ha, post-emergence, visual assessment 15 DAA, 100%=total damage, 0%=no damage, read-out: Post-emergence herbicidal activity (percentage phytotoxicity) ECHCG POST.
The mark [18] stands for this setting: pre-emergence, 480 h, Rate 250 g/ha, pre-emergence, visual assessment 20 DAA, 100%=total damage, 0%=no damage, read-out: Pre-emergence herbicidal activity (percentage phytotoxicity) ECHCG PRE.
Where [19] appears, read: post-emergence, 360 h, Rate 250 g/ha, post-emergence, visual assessment 15 DAA, 100%=total damage, 0%=no damage, read-out: Post-emergence herbicidal activity (percentage phytotoxicity) LOLPE POST.
Setting [20] is: pre-emergence, 480 h, Rate 250 g/ha, pre-emergence, visual assessment 20 DAA, 100%=total damage, 0%=no damage, read-out: Pre-emergence herbicidal activity (percentage phytotoxicity) LOLPE PRE.

In the case of `COc1ccc(CNC(=O)CC2CC(=O)C(c3c(C)cc(-c4ccc(C#N)cn4)cc3C)C2=O)cc1` (stereo not shown) [Compound B324], the pest or weed control at 250 g/ha in experiment [1] (setting [5]) was determined as 70%; in experiment [1] (setting [6]) it was 30%; in experiment [2] (setting [7]) it was 90%; in experiment [2] (setting [8]), 0%; in experiment [3] (setting [9]), 100%; in experiment [3] (setting [10]), 30%. Further, the pest or weed control at 250 g/ha in experiment [4] (setting [11]) came out at 80%; in experiment [4] (setting [12]), 60%.
For the compound `COCC(C)(C)NC(=O)CC1CC(=O)C(c2c(C)cc(-c3ncc(Cl)cc3F)cc2C)C1=O` (stereo not shown) [Compound B325], the pest or weed control at 250 g/ha in experiment [1] (setting [5]) turned out to be 100%; in experiment [1] (setting [6]), 100%; in experiment [2] (setting [7]) it was 100%; in experiment [2] (setting [8]) it was 70%; in experiment [3] (setting [9]), 100%; in experiment [3] (setting [10]) it was 100%. The pest or weed control at 250 g/ha in experiment [4] (setting [11]) and in experiment [4] (setting [12]) was 100% throughout.
`Cc1cc(-c2ncc(F)cn2)cc(C)c1C1C(=O)CC(CC(=O)NC/C=C\Br)C1=O` (stereo not shown) [Compound B326]: the pest or weed control at 250 g/ha amounted to 100% in experiment [1] (setting [5]); 100% in experiment [1] (setting [6]); 100% in experiment [2] (setting [7]); 80% in experiment [2] (setting [8]); 100% in experiment [3] (setting [9]); 100% in experiment [3] (setting [10]). For the same compound, the pest or weed control at 250 g/ha in experiment [4] (setting [11]) and in experiment [4] (setting [12]) was 100% in each case.
For `COCC(C)(C)NC(=O)CC1CC(=O)C(c2c(C)cc(-c3ncc(F)cn3)cc2C)C1=O` (stereo not shown) [Compound B327], the pest or weed control at 250 g/ha amounted to 100% in experiment [1] (setting [5]); 100% in experiment [1] (setting [6]); 100% in experiment [2] (setting [7]); 80% in experiment [2] (setting [8]); 100% in experiment [3] (setting [9]); 100% in experiment [3] (setting [10]). The pest or weed control at 250 g/ha in experiment [4] (setting [11]) was determined as 90%; in experiment [4] (setting [12]), 100%.
For `C=CC(C)NC(=O)CC1CC(=O)C(c2c(C)cc(-c3ncc(F)cn3)cc2C)C1=O` (stereo not shown) [Compound B328], the pest or weed control at 250 g/ha in experiment [1] (setting [5]), in experiment [1] (setting [6]), in experiment [2] (setting [7]), in experiment [2] (setting [8]), in experiment [3] (setting [9]) and in experiment [3] (setting [10]) was 100% each time. For the same compound, the pest or weed control at 250 g/ha in experiment [4] (setting [11]) and in experiment [4] (setting [12]) was 100% throughout.
With `COCC(C)(C)NC(=O)CC1CC(=O)C(c2c(C)cc(-c3ncc(F)cc3F)cc2C)C1=O` (stereo not shown) [Compound B329], the pest or weed control at 250 g/ha was found to be 100% in experiment [1] (setting [5]); 100% in experiment [1] (setting [6]); 100% in experiment [2] (setting [7]); 80% in experiment [2] (setting [8]); 100% in experiment [3] (setting [9]); 100% in experiment [3] (setting [10]). The pest or weed control at 250 g/ha in experiment [4] (setting [11]) and in experiment [4] (setting [12]) was 100% each time.
Regarding `C=CC(C)NC(=O)CC1CC(=O)C(c2c(C)cc(-c3ncc(F)cc3F)cc2C)C1=O` (stereo not shown) [Compound B330], the pest or weed control at 250 g/ha in experiment [1] (setting [5]), in experiment [1] (setting [6]), in experiment [2] (setting [7]), in experiment [2] (setting [8]), in experiment [3] (setting [9]) and in experiment [3] (setting [10]) was 100% throughout. In addition, the pest or weed control at 250 g/ha in experiment [4] (setting [11]) and in experiment [4] (setting [12]) was 100% each time.
Regarding `Cc1cc(-c2ncc(F)cn2)cc(C)c1C1C(=O)CC(CC(=O)N(C)C(C)(C)C)C1=O` (stereo not shown) [Compound B331], the pest or weed control at 250 g/ha stood at 90% in experiment [1] (setting [5]); 100% in experiment [1] (setting [6]); 100% in experiment [2] (setting [7]); 90% in experiment [2] (setting [8]); 100% in experiment [3] (setting [9]); 100% in experiment [3] (setting [10]). The pest or weed control at 250 g/ha in experiment [4] (setting [11]) and in experiment [4] (setting [12]) was 100% each time.
Regarding `COCC(C)NC(=O)CC1CC(=O)C(c2c(C)cc(-c3ncc(F)cn3)cc2C)C1=O` (stereo not shown) [Compound B332], the pest or weed control at 250 g/ha in experiment [1] (setting [5]), in experiment [1] (setting [6]), in experiment [2] (setting [7]), in experiment [2] (setting [8]), in experiment [3] (setting [9]) and in experiment [3] (setting [10]) was 100% each time. For the same compound, the pest or weed control at 250 g/ha in experiment [4] (setting [11]) and in experiment [4] (setting [12]) was 100% in each case.
For the compound `C#CCNC(=O)CC1CC(=O)C(c2c(C)cc(-c3ncc(F)cn3)cc2C)C1=O` (stereo not shown) [Compound B333], the pest or weed control at 250 g/ha in experiment [1] (setting [5]) was determined as 100%; in experiment [1] (setting [6]), 100%; in experiment [2] (setting [7]) it was 40%; in experiment [2] (setting [8]), 100%; in experiment [3] (setting [9]) it was 100%; in experiment [3] (setting [10]), 100%. Also, the values for the pest or weed control at 250 g/ha in experiment [4] (setting [11]) and in experiment [4] (setting [12]) were 90% and 100%, respectively.
Take `C#CCN(C)C(=O)CC1CC(=O)C(c2c(C)cc(-c3ncc(F)cn3)cc2C)C1=O` (stereo not shown) [Compound B334]: the pest or weed control at 250 g/ha in experiment [1] (setting [13]), in experiment [1] (setting [14]), in experiment [2] (setting [15]), in experiment [2] (setting [16]), in experiment [3] (setting [17]) and in experiment [3] (setting [18]) was 100% throughout. In addition, the values for the pest or weed control at 250 g/ha in experiment [4] (setting [19]) and in experiment [4] (setting [20]) were 90% and 100%, respectively.
On to `COCC(C)NC(=O)CC1CC(=O)C(c2c(C)cc(-c3ncc(F)cc3F)cc2C)C1=O` (stereo not shown) [Compound B335], for which the pest or weed control at 250 g/ha in experiment [1] (setting [13]) is 100%; in experiment [1] (setting [14]) it was 100%; in experiment [2] (setting [15]), 100%; in experiment [2] (setting [16]), 100%; in experiment [3] (setting [17]), 100%; in experiment [3] (setting [18]), 90%. Also, the pest or weed control at 250 g/ha in experiment [4] (setting [19]) and in experiment [4] (setting [20]) was 100% throughout.
As to `C#CCNC(=O)CC1CC(=O)C(c2c(C)cc(-c3ncc(F)cc3F)cc2C)C1=O` (stereo not shown) [Compound B336], the pest or weed control at 250 g/ha in experiment [1] (setting [13]), in experiment [1] (setting [14]), in experiment [2] (setting [15]), in experiment [2] (setting [16]), in experiment [3] (setting [17]) and in experiment [3] (setting [18]) was 100% throughout. Moreover, the pest or weed control at 250 g/ha in experiment [4] (setting [19]) and in experiment [4] (setting [20]) was 100% throughout.
`Cc1cc(-c2ncc(Cl)cn2)cc(C)c1C1C(=O)CC(CC(=O)NCc2cccc(F)c2)C1=O` (stereo not shown) [Compound B337]: the pest or weed control at 250 g/ha was 100% in experiment [1] (setting [13]); 90% in experiment [1] (setting [14]); 100% in experiment [2] (setting [15]); 90% in experiment [2] (setting [16]); 100% in experiment [3] (setting [17]); 90% in experiment [3] (setting [18]). Besides, the pest or weed control at 250 g/ha in experiment [4] (setting [19]) came to 100%; in experiment [4] (setting [20]), 90%.
